In PMC5603865, “Synthesis, In-Vitro Activity and Metabolic Properties of Quinocetone and Structurally Similar Compounds” (Iranian Journal of Pharmaceutical Research : IJPR, 2017):
≈ marks a conversion by molar mass, not a printed value. Where two headings read alike, the source gives them in different places.

Experiments:
[1] = test system: normal human Chang liver cells; assay: In-vitro cytotoxicity, MTT cell proliferation assay; format: cell-based; settings: 24 h incubation, concentration reducing viable cells by 50%
Protocol: (§1) All test compounds were dissolved in dimethyl sulfoxide (DMSO, Sigma, USA) and then diluted in Dulbecco’s modified Eagle’s medium (DMEM, Gibco, USA) at desired concentrations for cell proliferation analyses or diluted in nutrient broth medium for antimicrobial susceptibility testing respectively. The final concentration of DMSO in the DMEM culture medium was under 0.1% (v:v).
(§2) HepG2 and normal human Chang liver cells were obtained from the Institute of Biochemistry and Cell Biology, Shanghai Institutes for Biological Sciences, Chinese Academy of Sciences (Shanghai, China). HepG2 and normal human Chang liver cells were cultured at 37˚Cwith 5% CO2 in DMEM supplemented with 2% L-glutamine, 10% fetal bovine serum (Gibco, USA), 100 U/mL penicillin and 100 […] (Gibco, USA).
(§3) The methodology for evaluating the cytotoxicity inhibitory activity of various test compounds towards cell proliferation has been described previously ([11], [17]). Cell proliferation inhibitory analyses were carried out using the 3-(4,5-dimethylthiazole-2-yl)-2,5-diphenyl tetrazolium bromide (MTT, Sigma, USA) assay. Briefly, cancers HepG2 and normal human Chang liver cells were harvested and resuspended in fresh growth medium. A 100 μL cell suspension (5 × 10^4 cells/mL) was aliquoted into each well of a 96-well culture plate. After 12 h incubation, the medium was replaced with fresh medium containing various concentrations of test compounds. The cells were then incubated for another 24 h. At the end of exposure, 10 μL of MTT solution (5 mg/mL) was added, and the cells were incubated for 4 h at 37 °C. The cells were treated with 100 μL DMSO, and absorbance was recorded at 570 nm using a microplate ELISA reader (ELX800, Bio-Tek, USA). All experiments were performed at least thrice, and data were presented as the mean of sixplicate wells ± standard deviation (SD). Cell inhibition was calculated as follows:
(§4) (OD of control group − OD of experimental group) / (OD of control group − OD of blank group) ×100%. The IC50 value for a compound was calculated using SPSS.

[2] = test system: Clostridium perfringen CVCC52,8604; assay: In-vitro antibacterial activity, MIC by broth dilution (anaerobic chamber); format: cell-based; settings: 24 h; for MIC: Clostridium
Protocol: as §1
(§5) The preliminary antibacterial activities were obtained for selected compounds against various bacteria, namely: Staphyloccocus aureus ATCC25923 (Gram-positive bacteria), Clostridium perfringen CVCC52,8604 (anaerobes bacteria), Salmonella pullorum (Gram-negative bacteria), Escherichia coli ATCC25922 (Gram negative bacteria) and Aeromonas hydrophila (Gram-negative bacteria) were used in the study. Each strain was cultured in appropriate broth medium. Clostridium perfringen was incubated in an anaerobic chamber. The minimum inhibitory concentration (MIC) for each test compound was estimated using the broth dilution method. The MIC’s was determined for each strain/compound pairs that presented antimicrobial activity. The method was modified from Mohapatra›s methods ([14], [15]). Cell suspensions were prepared in 2 mL of liquid medium with concentrations of various tests of compounds in 15 mL culture tubes by inoculation with 100 μL of 10^6 cfu/mL from each stock. The cultures were incubated at 28 °C or 37 °C for 24 h. Tubes showing no visible turbidity represented the MIC, and subsequently, were inoculated on the right side of the 9cm sterile nutrient agar plates without various test compounds and incubated for 24 h (Clostridium perfringen was incubated in an anaerobic chamber.). The least concentration, at which no growth was observed, represented the minimum bactericidal concentration (MBC) ([16]).

[3] = test system: Staphyloccocus aureus ATCC25923; assay: In-vitro antibacterial activity, MIC by broth dilution; format: cell-based; settings: 24 h; for MIC: read-out: MIC values Staphyloccocus aureus ATCC25923
Protocol: as §1, §5

Salmonella pullorum = assay: as above; format: cell-based; settings: 24 h; for MIC: Salmonella enterica, PULLORUM
Protocol: as §1, §5

[4] = test system: Escherichia coli ATCC25922; assay: as above; format: cell-based; settings: for MIC: Escherichia coli, read-out: MIC values Escherichia coli ATCC25922
Protocol: as §1, §5

Aeromonas hydrophila = assay: as above; format: cell-based; settings: 24 h; for MIC: Aeromonas hydrophila, read-out: MIC values Aeromonas hydrophila
Protocol: as §1, §5

HepG2 cells = assay: In-vitro cytotoxicity, MTT cell proliferation assay; format: cell-based, human; settings: 24 h incubation, concentration reducing viable cells by 50%
Protocol: as §1, §2, §3, §4

[5] = test system: Gram-positive and Gram-negative bacteria; assay: Antibacterial activity class based on the MIC results; format: cell-based
Protocol: as §5
In this study, activity of quinoxaline-1, 4-dioxides and their deoxygenations was tested against selected Gram-negative bacteria (Escherichia coli, Salmonella pullorum and Aeromonas hydrophila), Gram-positive bacteria (Staphyloccocus aureus and Clostridium perfringen). The in-vitro antibacterial activity was based on the MIC results: Strong antibacterial activity, if MIC is less than 50 μg/mL; Moderate, if MIC is in between 50 and 250 μg/mL; No activity, if MIC is more than 500 μg/mL.

[6] = Homo sapiens, Chang liver, 24 h
[7] = ATCC25922, broth dilution, 24 h

Compound	IC50 [1] [µM]	MIC values Clostridium perfringen [2] [µg/mL]	MIC values Staphyloccocus aureus ATCC25923 ([3]; broth dilution) [µg/mL]	MIC values Salmonella pullorum (Salmonella pullorum) [µg/mL]	MIC values Escherichia coli ATCC25922 ([4]; broth dilution, 24 h) [µg/mL]	MIC values Aeromonas hydrophila (Aeromonas hydrophila; broth dilution) [µg/mL]	IC50 (HepG2 cells) [µM]	IC50 [1, 6] [µM]	antibacterial activity against Gram-positive and Gram-negative bacteria [5]	MIC [2] [µg/mL]	MIC ([3]; broth dilution) [µg/mL]	MIC (Salmonella pullorum) [µg/mL]	MIC [4, 7] [µg/mL]	MIC (Aeromonas hydrophila; broth dilution) [µg/mL]	IC50 (HepG2 cells; Homo sapiens, HepG2, 24 h) [µM]	MIC [3] [µg/mL]	MIC ([4]; ATCC25922, 24 h) [µg/mL]	MIC (Aeromonas hydrophila) [µg/mL]
2-(3-phenyl-2-propenyl) -3-methylquinoxaline [Compound 5a]	532 ± 7.66	>500	>500	>500	>500	>500	451 ± 11.1	–	–	–	–	–	–	–	–	–	–	–
CC(=O)c1c(C)[n+]([O-])c2ccccc2[n+]1[O-] [Compound 2, 2-acetyl-3-methylquinoxaline-1,4-dioxide]	–	–	–	–	–	–	–	263 ± 3.11	strong or moderate activity	8.72 (≈ 40 µM)	17.4 (≈ 79.9 µM)	17.4 (≈ 79.9 µM)	4.36 (≈ 20 µM)	17.4 (≈ 79.9 µM)	288 ± 9.74	–	–	–
Cc1c(C(=O)/C=C/c2cccc(O)c2)[n+]([O-])c2ccccc2[n+]1[O-] [Compound 3b]	68 ± 2.9	–	–	–	–	–	30.5 ± 1.3	68	strong or moderate activity	51.5 (≈ 160 µM)	12.9 (≈ 40 µM)	25.8 (≈ 79.9 µM)	103 (≈ 320 µM)	206 (≈ 639 µM)	30	–	–	–
Cc1c(C(=O)/C=C/c2ccccc2O)[n+]([O-])c2ccccc2[n+]1[O-] [Compound 3c]	–	–	–	–	–	–	102 ± 4.13	192 ± 10.3	strong or moderate activity	25.8 (≈ 79.9 µM)	–	103 (≈ 320 µM)	103 (≈ 320 µM)	103 (≈ 320 µM)	102	25.8 (≈ 79.9 µM)	–	–
Cc1c(C(=O)/C=C/c2cccc([N+](=O)[O-])c2)[n+]([O-])c2ccccc2[n+]1[O-] [Compound 3d]	–	–	–	–	–	–	–	411 ± 17.1	little or no activity	> 500	449 (≈ 1280 µM)	56.2 (≈ 160 µM)	> 500	449 (≈ 1280 µM)	380 ± 10.6	–	–	–
Cc1c(C(=O)/C=C/c2ccc([N+](=O)[O-])cc2)[n+]([O-])c2ccccc2[n+]1[O-] [Compound 3e]	–	–	–	–	–	–	–	536 ± 22.9	little or no activity	449 (≈ 1280 µM)	–	225 (≈ 639 µM)	–	112 (≈ 320 µM)	449 ± 19.4	449 (≈ 1280 µM)	449 (≈ 1280 µM)	–
COc1ccc(/C=C/C(=O)c2c(C)[n+]([O-])c3ccccc3[n+]2[O-])cc1 [Compound 3f]	86.9 ± 6.3	–	–	–	–	–	99.7 ± 2.97	87	little or no activity	26.9 (≈ 79.9 µM)	13.4 (≈ 40 µM)	> 500	> 500	> 500	99	–	–	–
Cc1c(C(=O)/C=C/c2ccc(Cl)cc2)[n+]([O-])c2ccccc2[n+]1[O-] [Compound 3g]	–	–	–	–	–	–	103 ± 4.08	114 ± 4.59	little or no activity	435 (≈ 1280 µM)	27.2 (≈ 79.8 µM)	> 500	> 500	> 500	102	–	–	–
Cc1c(C(=O)/C=C/c2ccc(N(C)C)cc2)[n+]([O-])c2ccccc2[n+]1[O-] [Compound 3h]	–	–	–	–	–	–	–	509 ± 14.8	little or no activity	447 (≈ 1280 µM)	–	> 500	–	223 (≈ 639 µM)	395 ± 14.6	447 (≈ 1280 µM)	447 (≈ 1280 µM)	–
CC(=O)c1nc2ccccc2nc1C [Compound 4, 2-acetyl-3-methylquinoxaline]	–	–	–	–	–	–	–	672 ± 23.2	little or no activity	> 500	> 500	476 (≈ 2560 µM)	> 500	119 (≈ 639 µM)	572 ± 36.2	–	–	–
Cc1nc2ccccc2nc1C(=O)/C=C/c1cccc(O)c1 [Compound 5b]	–	–	–	–	–	–	–	463 ± 9.91	–	> 500	> 500	> 500	> 500	371 (≈ 1280 µM)	526 ± 20.9	–	–	–
Cc1nc2ccccc2nc1C(=O)/C=C/c1ccccc1O [Compound 5c]	–	–	–	–	–	–	–	361 ± 10.2	–	> 500	> 500	> 500	> 500	371 (≈ 1280 µM)	274 ± 11.6	–	–	–
Cc1nc2ccccc2nc1C(=O)/C=C/c1cccc([N+](=O)[O-])c1 [Compound 5d]	–	–	–	–	–	–	–	499 ± 8.75	–	> 500	> 500	> 500	> 500	> 500	461 ± 4.49	–	–	–
Cc1nc2ccccc2nc1C(=O)/C=C/c1ccc([N+](=O)[O-])cc1 [Compound 5e]	–	–	–	–	–	–	–	590.1 ± 2.22	–	> 500	> 500	> 500	> 500	> 500	606 ± 34.6	–	–	–
COc1ccc(/C=C/C(=O)c2nc3ccccc3nc2C)cc1 [Compound 5f]	–	–	–	–	–	–	–	531 ± 19.3	–	> 500	> 500	> 500	> 500	> 500	653 ± 32	–	–	–
Cc1nc2ccccc2nc1C(=O)/C=C/c1ccc(Cl)cc1 [Compound 5g]	–	–	–	–	–	–	–	689 ± 46.2	–	> 500	> 500	> 500	> 500	> 500	533 ± 24.8	–	–	–
Cc1nc2ccccc2nc1C(=O)/C=C/c1ccc(N(C)C)cc1 [Compound 5h]	–	–	–	–	–	–	–	567 ± 26.7	–	> 500	> 500	> 500	> 500	> 500	626 ± 25.4	–	–	–
Cc1c(C(=O)/C=C/c2ccco2)[n+]([O-])c2ccccc2[n+]1[O-] [Compound 6, 3-methyl-2-(3-fura-2-propenoyl)-quinoxaline-1,4-dioxide]	–	–	–	–	–	–	–	299 ± 6.72	strong or moderate activity	94.7 (≈ 320 µM)	–	189 (≈ 639 µM)	–	–	240 ± 34.8	94.7 (≈ 320 µM)	94.7 (≈ 320 µM)	94.7 (≈ 320 µM)
Cc1nc2ccccc2nc1C(=O)/C=C/c1ccco1 [Compound 7, 3-methyl-2-(3-fura-2-propenoyl)-quinoxaline]	–	–	–	–	–	–	–	469 ± 5.26	–	> 500	> 500	> 500	> 500	338 (≈ 1280 µM)	441 ± 12.3	–	–	–
Cc1nc2ccccc2nc1C(=O)O [Compound 10, 3-methyl-quinoxaline-2-carboxylic acid]	–	–	–	–	–	–	–	2120 ± 90.1	–	> 500	> 500	> 500	> 500	481 (≈ 2560 µM)	2490 ± 133	–	–	–
